Measured values published in ChEMBL document CHEMBL3217597, “OH radical production stimulated by (RW)4D, a synthetic antimicrobial agent and indolicidin” (Medchemcomm, 2012).
Converted amounts (≈) assume the structure as drawn. The source made the active and inactive calls. The rule behind the calls is not given here. Where a SMILES comes first, the peptide text is derived from it. Side-chain parts run from the residue outwards. [ ]: non-standard residue; d: D form. The star is where a group is joined. Lys(α,ε-(ArgTrp)2) = N=C(N)NCCC[C@H](N)C(=O)N[C@@H](Cc1c[nH]c2ccccc12)C(=O)NCCCC[C@H](NC(=O)[C@H](Cc1c[nH]c2ccccc12)NC(=O)[C@@H](N)CCCNC(=N)N)C(=O)*; βAla = NCCC(=O)O

What was measured:
Escherichia coli [1] = experiment: Induction of hydroxyl radical production in Escherichia coli at 5 to 15 ug/mL after 1 hr by measuring increase in hydroxyphenyl fluorescein emission by flow cytometry analysis in presence of thiourea; type: functional, organism-based
Escherichia coli [2] = experiment: Induction of hydroxyl radical production in Escherichia coli at 5 to 15 ug/mL after 2 hrs by measuring increase in hydroxyphenyl fluorescein emission by flow cytometry analysis; type: functional, organism-based
Escherichia coli [3] = experiment: Induction of hydroxyl radical production in deltaiscS knockout Escherichia coli at 5 to 15 ug/mL after 1 hr by measuring increase in hydroxyphenyl fluorescein emission by flow cytometry analysis; type: functional, organism-based
Escherichia coli [4] = experiment: Reduction of hydroxyl radical production in deltaacnB knockout Escherichia coli at 5 to 15 ug/ml after 1 hr by flow cytometry analysis; type: functional, organism-based
Escherichia coli [5] = experiment: Reduction of hydroxyl radical production in deltaicdA knockout Escherichia coli at 5 to 15 ug/ml after 1 hr by flow cytometry analysis; type: functional, organism-based
Escherichia coli [6] = experiment: Reduction of hydroxyl radical production in […] knockout Escherichia coli at 5 to 15 ug/ml after 1 hr by flow cytometry analysis; type: functional, organism-based
Escherichia coli [7] = experiment: Reduction of hydroxyl radical production in deltamdh knockout Escherichia coli at 5 to 15 ug/ml after 1 hr by flow cytometry analysis; type: functional, organism-based
Escherichia coli [8] = experiment: Induction of hydroxyl radical production in Escherichia coli at 5 to 15 ug/mL after 1 hr by measuring increase in hydroxyphenyl fluorescein emission by flow cytometry analysis; type: functional, organism-based
Escherichia coli [9] = experiment: Induction of hydroxyl radical production in Escherichia coli at 25 to 250 ng/mL after 1 hr by measuring increase in hydroxyphenyl fluorescein emission by flow cytometry analysis; type: functional, organism-based
Escherichia coli [10] = experiment: Induction of hydroxyl radical production in Escherichia coli at 25 to 250 ng/mL after 1 hr by measuring increase in hydroxyphenyl fluorescein emission by flow cytometry analysis in presence of thiourea; type: functional, organism-based
Escherichia coli [11] = experiment: Induction of hydroxyl radical production in Escherichia coli at 25 to 250 ng/mL after 2 hrs by measuring increase in hydroxyphenyl fluorescein emission by flow cytometry analysis; type: functional, organism-based
Escherichia coli [12] = experiment: Induction of hydroxyl radical production in deltaiscS knockout Escherichia coli at 25 to 250 ng/mL after 1 hr by measuring increase in hydroxyphenyl fluorescein emission by flow cytometry analysis; type: functional, organism-based
Escherichia coli [13] = experiment: Reduction of hydroxyl radical production in deltaacnB knockout Escherichia coli at 25 to 250 ng/ml after 1 hr by flow cytometry analysis; type: functional, organism-based
Escherichia coli [14] = experiment: Reduction of hydroxyl radical production in deltaicdA knockout Escherichia coli at 25 to 250 ng/ml after 1 hr by flow cytometry analysis; type: functional, organism-based
Escherichia coli [15] = experiment: Reduction of hydroxyl radical production in […] knockout Escherichia coli at 25 to 250 ng/ml after 1 hr by flow cytometry analysis; type: functional, organism-based
Escherichia coli [16] = experiment: Reduction of hydroxyl radical production in deltamdh knockout Escherichia coli at 25 to 250 ng/ml after 1 hr by flow cytometry analysis; type: functional, organism-based
Escherichia coli [17] = experiment: Induction of hydroxyl radical production in Escherichia coli at 9 to 45 ug/mL after 1 hr by measuring increase in hydroxyphenyl fluorescein emission by flow cytometry analysis in presence of thiourea; type: functional, organism-based
Escherichia coli [18] = experiment: Induction of hydroxyl radical production in Escherichia coli at 9 to 45 ug/mL after 2 hrs by measuring increase in hydroxyphenyl fluorescein emission by flow cytometry analysis; type: functional, organism-based
Escherichia coli [19] = experiment: Induction of hydroxyl radical production in deltaiscS knockout Escherichia coli at 9 to 45 ug/mL after 1 hr by measuring increase in hydroxyphenyl fluorescein emission by flow cytometry analysis; type: functional, organism-based
Escherichia coli [20] = experiment: Antibacterial activity against Escherichia coli […]; type: functional, organism-based
Escherichia coli [21] = experiment: Antibacterial activity against deltaiscS knockout Escherichia coli; type: functional, organism-based
Escherichia coli [22] = experiment: Antibacterial activity against deltaacnB knockout Escherichia coli; type: functional, organism-based
Escherichia coli [23] = experiment: Antibacterial activity against deltaicdA knockout Escherichia coli; type: functional, organism-based
Escherichia coli [24] = experiment: Antibacterial activity against […] knockout Escherichia coli; type: functional, organism-based
Escherichia coli [25] = experiment: Antibacterial activity against deltamdh knockout Escherichia coli; type: functional, organism-based
Escherichia coli [26] = experiment: Ratio of IC50 for deltaiscS knockout Escherichia coli to IC50 for Escherichia coli […]; type: functional
Escherichia coli [27] = experiment: Ratio of IC50 for deltaicdA knockout Escherichia coli to IC50 for Escherichia coli […]; type: functional
Escherichia coli [28] = experiment: Ratio of IC50 for deltaacnB knockout Escherichia coli to IC50 for Escherichia coli […]; type: functional
Escherichia coli [29] = experiment: Reduction of hydroxyl radical production in deltaacnB knockout Escherichia coli at 9 ug/ml after 1 hr by flow cytometry analysis; type: functional, organism-based
Escherichia coli [30] = experiment: Reduction of hydroxyl radical production in deltaicdA knockout Escherichia coli at 9 to 45 ug/mL after 1 hr by flow cytometry analysis; type: functional, organism-based
Escherichia coli [31] = experiment: Reduction of hydroxyl radical production in […] knockout Escherichia coli at 9 to 45 ug/mL after 1 hr by flow cytometry analysis; type: functional, organism-based
Escherichia coli [32] = experiment: Reduction of hydroxyl radical production in deltamdh knockout Escherichia coli at 9 to 45 ug/mL after 1 hr by flow cytometry analysis; type: functional, organism-based
Escherichia coli [33] = experiment: Induction of hydroxyl radical production in Escherichia coli at 9 to 45 ug/mL after 1 hr by measuring increase in hydroxyphenyl fluorescein emission by flow cytometry analysis; type: functional, organism-based
Escherichia coli [34] = experiment: Induction of hydroxyl radical production in Escherichia coli at 5 to 25 ug/mL after 1 hr by measuring increase in hydroxyphenyl fluorescein emission by flow cytometry analysis in presence of thiourea; type: functional, organism-based
Escherichia coli [35] = experiment: Induction of hydroxyl radical production in Escherichia coli at 5 to 25 ug/mL after 2 hrs by measuring increase in hydroxyphenyl fluorescein emission by flow cytometry analysis; type: functional, organism-based
Escherichia coli [36] = experiment: Induction of hydroxyl radical production in deltaiscS knockout Escherichia coli at 5 to 25 ug/mL after 1 hr by measuring increase in hydroxyphenyl fluorescein emission by flow cytometry analysis; type: functional, organism-based
Escherichia coli [37] = experiment: Reduction of hydroxyl radical production in deltaacnB knockout Escherichia coli at 5 to 25 ug/ml after 1 hr by flow cytometry analysis; type: functional, organism-based
Escherichia coli [38] = experiment: Reduction of hydroxyl radical production in deltaicdA knockout Escherichia coli at 5 to 25 ug/ml after 1 hr by flow cytometry analysis; type: functional, organism-based
Escherichia coli [39] = experiment: Reduction of hydroxyl radical production in […] knockout Escherichia coli at 5 to 25 ug/ml after 1 hr by flow cytometry analysis; type: functional, organism-based
Escherichia coli [40] = experiment: Reduction of hydroxyl radical production in deltamdh knockout Escherichia coli at 5 to 25 ug/ml after 1 hr by flow cytometry analysis; type: functional, organism-based
Escherichia coli [41] = experiment: Induction of hydroxyl radical production in Escherichia coli at 5 to 25 ug/mL after 1 hr by measuring increase in hydroxyphenyl fluorescein emission by flow cytometry analysis; type: functional, organism-based

## CC1(C)S[C@@H]2[C@H](NC(=O)[C@H](N)c3ccccc3)C(=O)N2[C@H]1C(=O)O
Escherichia coli [1]
  Activity: inactive
Escherichia coli [2]
  Activity: Active
Escherichia coli [3]
  Activity: inactive
Escherichia coli [4]
  Activity: Active
Escherichia coli [5]
  Activity: inactive
Escherichia coli [6]
  Activity: inactive
Escherichia coli [7]
  Activity: inactive
Escherichia coli [8]
  Activity: Active

## CCn1cc(C(=O)O)c(=O)c2cc(F)c(N3CCNCC3)cc21
Escherichia coli [9]
  Activity: Active
Escherichia coli [10]
  Activity: inactive
Escherichia coli [11]
  Activity: Active
Escherichia coli [12]
  Activity: inactive
Escherichia coli [13]
  Activity: Active
Escherichia coli [14]
  Activity: inactive
Escherichia coli [15]
  Activity: inactive
Escherichia coli [16]
  Activity: inactive

## N=C(N)NCCC[C@H](N)C(=O)N[C@@H](Cc1c[nH]c2ccccc12)C(=O)NCCCC[C@H](NC(=O)[C@H](Cc1c[nH]c2ccccc12)NC(=O)[C@@H](N)CCCNC(=N)N)C(=O)NCCCC[C@H](NC(=O)[C@H](CCCCNC(=O)[C@H](Cc1c[nH]c2ccccc12)NC(=O)[C@@H](N)CCCNC(=N)N)NC(=O)[C@H](Cc1c[nH]c2ccccc12)NC(=O)[C@@H](N)CCCNC(=N)N)C(=O)NCCC(N)=O (H-RWK([Trp-Arg])K(Lys(α,ε-(ArgTrp)2))[βAla]-NH2)
Escherichia coli [17]
  Activity: inactive
Escherichia coli [18]
  Activity: Active
Escherichia coli [19]
  Activity: inactive
Escherichia coli [20]
  IC50: 6.5 µg/mL (≈ 3.53 µM)
Escherichia coli [21]
  IC50: 9.9 µg/mL (≈ 5.37 µM)
Escherichia coli [22]
  IC50: 9.7 µg/mL (≈ 5.27 µM)
Escherichia coli [23]
  IC50: 9.4 µg/mL (≈ 5.1 µM)
Escherichia coli [24]
  IC50: 8.3 µg/mL (≈ 4.51 µM)
Escherichia coli [25]
  IC50: 7.8 µg/mL (≈ 4.23 µM)
Escherichia coli [26]
  Ratio IC50: 1.5
Escherichia coli [27]
  Ratio IC50: 1.5
Escherichia coli [28]
  Ratio IC50: 1.5
Escherichia coli [29]
  Activity: Active
Escherichia coli [30]
  Activity: inactive
Escherichia coli [31]
  Activity: inactive
Escherichia coli [32]
  Activity: inactive
Escherichia coli [33]
  Activity: Active

## NC[C@H]1O[C@H](O[C@H]2[C@H](O)[C@@H](O[C@H]3O[C@H](CO)[C@@H](O)[C@H](N)[C@H]3O)[C@H](N)C[C@@H]2N)[C@H](O)[C@@H](O)[C@@H]1O
Escherichia coli [34]
  Activity: inactive
Escherichia coli [35]
  Activity: Active
Escherichia coli [36]
  Activity: inactive
Escherichia coli [37]
  Activity: Active
Escherichia coli [38]
  Activity: inactive
Escherichia coli [39]
  Activity: inactive
Escherichia coli [40]
  Activity: inactive
Escherichia coli [41]
  Activity: Active
